Data published in US20090110748A1, “Biocompatible Material and Process for Manufacturing the Same” (priority 2007, published 2009).

Legend:
osteoporotic model mice [1] = experiment: pQCT three-dimensional bone densitometry of femoral distal epiphyses and diaphyses; type: in vivo, mouse; conditions: for Items showing a significant difference: number of the 14 pQCT parameters (epiphyses and diaphyses) differing significantly from OVX control group; for Epiphyses Bone Density, significant difference vs OVX control group / Epiphyses Cortical Bone Cross-Section, significant difference vs OVX control group / Epiphyses Cortical Bone Thickness, significant difference vs OVX control group / Epiphyses Trabecular Bone Density, significant difference vs OVX control group: femoral distal epiphyses
Description: (§1) For study ICR female model mice of 10 weeks (of 20 g) were used. These mice underwent ovariectomy (OVX control group) and sham operation (sham operated group), and were subsequently fed with a conventional diet for 2 months, and then divided into 6 groups, each group having 10 mice. Of these, an OVX control group and a sham operated group were fed with 1.5 to 1.8% calcium containing feed which contained calcium carbonate as a calcium source. Further as a reference group, one group was treated with a bisphosphonate preparation (risedronate), which is an anti-osteoporotic agent showing obviously higher bone density. Remaining 3 groups were fed with special feeds, containing foodstuff and food additives. Combinations of foodstuff and food additives used in the present study are shown below in Table 4.
(§2) After being fed these feeds for 2 months, mice were decapitated for blood collection. Then serum was separated from the collected blood, and after that calcium, phosphorus, and magnesium concentrations and alkaline phosphatase level of the serum were determined. Furthermore, after a resection of femurs, a three-dimensional bone densitometry and bone structure analysis were conducted on the femoral distal epiphyses and diaphyses, using pQCT (Peripheral Quantitative Computed Tomography) and μCT (micro focus X-ray CT).
Subsequently, a bone mass density (mg/cm^3) as a physical quantity was analyzed separately for trabecular bones and cortical bones based on three-dimensional bone densitometry conducted using pQCT on the femoral distal epiphyses and diaphyses and cross-sectional images acquired in pQCT, and bone strength index was identified based on cortical bone width, second moment of area, and section modulus etc. Student's t-test was used for statistical treatment for comparison between the groups.

osteoporotic model mice [2] = experiment: μCT three-dimensional trabecular structure analysis of femoral distal epiphyses; type: in vivo, mouse; conditions: for Conclusion of 3-D image analysis: effects on bone density and trabecular structure: OVX mice, distal epiphyses and diaphyses, FIGS. 8 and 9; for Order according to the importance of the effects on improvement of trabecular bone structure: ranked after sham and risedronate groups
Description: as §1, §2
For an analysis of the trabecular structure, three-dimensional image data of femoral distal epiphyses were acquired using X-ray μCT (MCT-CB130F, Hitachi Medico), of 8×8 μm focus, with micro focus X-ray tube. As conditions for imaging, tube voltage was 40 kV, tube current 100 μA, and voxel size 17.8×17.8×17.8 μm, so that 50 volume data for each were acquired. Three-dimensional images were reconstructed based on the acquired 50 two-dimensional images of a trabecular bone and a cortical bone. 3D parameters were then determined on these 3D images using trabecular structure measuring software (TRI/3D-BON; RATOC System Engineering, Co., Ltd). The determined structural parameters are listed below in Table 5.
Student's t-test was used for statistical treatment for comparison between the groups. Only the parameters showing significant difference in the OVX control group are compared to those in the remaining groups.

osteoporotic model mice [3] = experiment: Mineral concentration and ALP activity in mouse sera; type: in vivo; conditions: ovariectomized ICR female mice, fed test feeds for 2 months (doses Table 4)
Description: as §1, §2
Subsequently, blood was collected from the tested mice of each group, and mineral concentration and ALP activity in serum were determined. Blood collection was conducted by decapitating under a twilight sleep. The collected blood stood for 1 hour at ice temperature, and thereafter the serum was separated by a centrifuge for 10 minutes at 1000 rpm. Calcium amount was determined by chelete coloring method. 50 μL of serum was added to 5 mL of a 0.88 M monoethanolamine buffer adjusted to pH=11, and a mixture of o-cresol-phthalein complexone and 8-quinolinol as a coloring agent was further added. The resulting mixture was sufficiently stirred and stood for 5 minutes, and thereafter absorbance at 570 nm determined using a spectrometer. Phosphorus was determined by direct molybdenum blue method. After 0.2 mL of serum was added to 5 mL of a coloring agent and the resulting mixture stood for 15 minutes at room temperature, absorbance at 690 nm was determined using a spectrometer. The coloring agent was prepared by adding a surfactant to a mixture of ammonium molybdate, ammonium ferrous sulfate and sulfate. Magnesium was determined by xylidyl blue method. 3 mL of a coloring agent was added to 20 μL of serum and the resulting mixture stood for 10 minutes at room temperature, and thereafter absorbance at 520 nm was determined using a spectrometer. The coloring agent was prepared by adding a surfactant to a mixture of xylylazo violet I and ethylene glycol tetraacetic acid.
Alkaline phosphatase was determined by phenyl phosphoric acid substrate method. After 50 μL of serum was added to 2 mL of a substrate buffer and heated at 37° C. for 15 minutes, 2 mL of 36 mM potassium ferricyanide. The resulting mixture was sufficiently stirred, and thereafter absorbance at 570 nm was determined using a spectrometer. The substrate buffer was prepared by adding a mixture of 4-aminoantipyrine and phenylphosphoric acid to 50 mM carbonate buffer adjusted to pH=10.5.
In all of these determinations assay kits for clinical and biochemical use manufactured by Wako Pure Chemicals, Co., Ltd. were used.

[4] = pQCT, femoral diaphyses, p value, Student's t-test, 2 months feeding
[5] = pQCT, femoral diaphyses, p value, Student's t-test, 2 months feeding, listed as risedronate
[6] = pQCT, p value, Student's t-test, 2 months feeding
[7] = pQCT, p value, Student's t-test, 2 months feeding, listed as risedronate

Structure (SMILES)	Items showing a significant difference (osteoporotic model mice [1])	Conclusion of 3-D image analysis: effects on bone density and trabecular structure (osteoporotic model mice [2])	Order according to the importance of the effects on improvement of trabecular bone structure (osteoporotic model mice [2]; μCT, femoral distal epiphyses)	ALP activity in serum (osteoporotic model mice [3])	Ca in serum (osteoporotic model mice [3])	Mg in serum (osteoporotic model mice [3])	P in serum (osteoporotic model mice [3])	also measured
CC(C)=CCC/C(C)=C/CC/C(C)=C/CC/C(C)=C/CC1=C(C)C(=O)c2ccccc2C1=O [MK-4, Vitamin K2 (MK-4)]	2	improvement in bone internal structure was observed as a prevalent effect	MK7, the composite and MK4 is arranged in this order	3.52 ± 1.82 BL unit	9.60 ± 0.51 mg/dL	2.67 ± 0.28 mg/dL	6.96 ± 0.44 mg/dL	Diaphyses Trabecular Bone Density, significant difference vs OVX control group (osteoporotic model mice [1]; [4]): p < 0.05
CC(C)=CCC/C(C)=C/CC/C(C)=C/CC/C(C)=C/CC/C(C)=C/CC/C(C)=C/CC/C(C)=C/CC1=C(C)C(=O)c2ccccc2C1=O [MK-7, Vitamin K2 (MK-7)]	4	both effects on an increased bone density and improved trabecular structure, with the improvement in trabecular structure being prevalent effect	MK7, the composite and MK4 is arranged in this order	3.77 ± 1.76 BL unit	9.34 ± 1.50 mg/dL	2.63 ± 0.63 mg/dL	7.12 ± 0.64 mg/dL	Diaphyses parameters, difference vs OVX control group (osteoporotic model mice [1]; pQCT, femoral diaphyses, all parameters): no significant difference
O=P(O)(O)C(O)(Cc1cccnc1)P(=O)(O)O [Risedronate, risedronate]	6	–	–	3.65 ± 1.26 BL unit	9.02 ± 1.15 mg/dL	3.12 ± 1.21 mg/dL	6.95 ± 0.32 mg/dL	Diaphyses Cortical Bone Cross-Section, significant difference vs OVX control group (osteoporotic model mice [1]; [4]): p < 0.05; Diaphyses Cortical Bone Thickness, significant difference vs OVX control group (osteoporotic model mice [1]; [4]): p < 0.05; Diaphyses Cortical Bone Cross-Section, significant difference vs OVX control group (osteoporotic model mice [1]; [5]): significant increase; Diaphyses Cortical Bone Thickness, significant difference vs OVX control group (osteoporotic model mice [1]; [5]): significant increase; Epiphyses Bone Density, significant difference vs OVX control group (osteoporotic model mice [1]; [6]): p < 0.01; Epiphyses Cortical Bone Cross-Section, significant difference vs OVX control group (osteoporotic model mice [1]; [6]): p < 0.05; Epiphyses Cortical Bone Thickness, significant difference vs OVX control group (osteoporotic model mice [1]; [6]): p < 0.05; Epiphyses Trabecular Bone Density, significant difference vs OVX control group (osteoporotic model mice [1]; [6]): p < 0.05; Epiphyses Bone Density, significant difference vs OVX control group (osteoporotic model mice [1]; [7]): significant increase; Epiphyses Cortical Bone Cross-Section, significant difference vs OVX control group (osteoporotic model mice [1]; [7]): significant increase; Epiphyses Cortical Bone Thickness, significant difference vs OVX control group (osteoporotic model mice [1]; [7]): significant increase; Epiphyses Trabecular Bone Density, significant difference vs OVX control group (osteoporotic model mice [1]; [7]): significant increase; Number of parameters with significant effects on improvement of trabecular bone structure (osteoporotic model mice [2]; μCT, femoral distal epiphyses, vs OVX control group (Table 9)): 12
